Measurements: patent US11541065B2, “Compositions and methods for treating brain injury” (UNM RAINFOREST INNOVATIONS, priority 2018, dated 2023)

Tests used:
ERK MAPK = ERK MAPK phosphorylation in rat cortical neuron cultures (immunoblot); type: cell-based
From the text: Primary cortical neuronal cultures were established from embryos obtained from pregnant Sprague Dawley female rats (16-17 day gestation) as previously described (Podder and Paul, 2009, J Neurochem 110:1095-1106; Poddar and Paul, 2013, J Neurochem 124: 558-570). Primary cortical neuronal cultures were also developed from pregnant wildtype or GluN2A-knockout mice (15-16 day gestation) using similar protocols. The cells were maintained in culture for 12-14 days prior to treatment with homocysteine. L-homocysteine (200 mM stock) was prepared by alkali hydrolysis of L-homocysteine thiolactone hydrochloride followed by neutralization with 2N HCL and maintained in 0.02 mM N-Tris(hydroxymethyl)methyl-2-aminoethanesulfonicd acid (TES) buffer pH 7.4 (Poddar et al., 2001, Circulation 103:2717-2723). For receptor stimulation neurons were treated with freshly prepared 50 μM of L-homocysteine in Hank's balanced salt solution (Podder and Paul, 2009, J Neurochem 110:1095-1106; Poddar and Paul, 2013, J Neurochem 124: 558-570) containing 50 μM of glycine (Lipton et al., 1997, Proc Natl Acad Sci USA 94:5923-5928). In a subset of culture plates, pharmacological inhibitors (NVP-AAM007) were added […] prior to homocysteine addition and maintained during homocysteine treatment. Cells were processed for immunoblotting or Hoechst DNA staining.
Equal protein from total cell lysates obtained from rat and mice neuronal cultures were resolved in 7.5% SDS-PAGE, and subjected to immunoblotting procedure as described earlier (Podder and Paul, 2009, J Neurochem 110:1095-1106). Blots were analyzed with antibodies as described in each experiment. All primary antibodies (anti-pERK, anti-ERK) and secondary-horse radish peroxidase conjugated antibody concentrations were used according to recommendations provided by the manufacturer. Signals from immune complexes in the blots were developed using West Pico supersignal chemiluminescence reagents and then captured on X-ray films. Densitometric analysis of the images was performed using the Image J software.
(§1) Embryos obtained from pregnant Sprague Dawley rats (16-17-day gestation) or wild type (WT) and GluN2A KO mice (15-16-day gestation) were used to establish primary cortical neuronal cultures as previously described (Poddar and Paul, 2009, J Neurochem 110:1095-1106; Poddar and Paul, 2013, J Neurochem 124:558-570; Poddar et al., 2017, J Neurochem 142:560-573). Neurons were grown on either (a) 35-mm culture dishes (MatTek Corp., Ashland, Mass.) coated overnight with poly-D-lysine (50 μg/ml) and laminin (10 μg/ml) for Ca^2+ imaging studies, (b) poly-D-lysine-coated 60 mm dishes (Corning BIOCOAT, Corning Inc., Corning, N.Y.) for biochemical studies, or (c) poly-D-lysine-coated 4-well culture slides (Corning BIOCOAT, Corning Inc., Corning, N.Y.) for cell death assay. Neurons were maintained in culture for 12-13 days before experiment. The cells were treated with freshly prepared L-homocysteine (50 μM) in Hank's balanced salt solution containing 50 μM of glycine (Lipton et al., 1997, Proceedings of the National Academy of Sciences of the United States of America 94:5923-5928; Poddar and Paul, 2009, J Neurochem 110:1095-1106; Poddar and Paul, 2013, J Neurochem 124:558-570; Poddar et al., 2017, J Neurochem 142:560-573) for the specified time periods. In a parallel series of experiments, cells were treated with glutamate (50 μM) for the specified time periods. Cells were then processed for live cell imaging, immunoblotting or cell death assay. In some experiments EGTA, DL-AP5, NVP-AAM077, Ro 25-6981 or PD98059 was added 15 minutes prior to L-homocysteine or glutamate treatment.
Rat and mice neuron cultures were harvested in SDS sample buffer (Laemmli, 1970, Nature 227:680-685). […]

[Ca^2+]i = Intracellular Ca^2+ by Fura2 imaging, rat neuronal cultures; type: cell-based; settings: for effect on homocysteine-induced increase in Fura2 fluorescence ratio and [Ca^2+]i: rat neurons, somata and processes, L-homocysteine 50 μM 60 minutes, with EGTA 2 mM, DL-AP5 200 μM, NVP-AAM077 30 nM or Ro 25-6981 1 μM
Experimental: as §1
[Ca^2+]i in neurons was determined using the fluorescent indicator, Fura2-AM. Briefly, neurons were loaded with Fura2 (10 μM) in phenol red free Hank's balanced salt solution for 30 minutes at 37° C. followed by post-incubation for 20 minutes (Paul, S. and Connor, J. A., 2010, J Neurochem 114:1107-1118). Time lapse live cell imaging was performed following stimulation using a Nikon Ti Eclipse inverted microscope equipped with Tokai Hit stage top incubator maintained at 37° C. and infused with 95:5% air:CO2 mixture. Fields of 5-8 cells were imaged using a 40× oil immersion objective (Nikon). Fluorescence excitations (340 and 380 nm) were provided with Sutter LB-LS/30 Lambda xenon arc lamp and fluorescence emissions (510 nm) were captured using a CCD camera (Teledyne Photometries, Tucson, Ariz.). NIS Elements AR software was used for data acquisition and analysis. Ratiometric data (340/380 nm) from regions of interest were corrected for background and converted into estimates of [Ca^2+]i. as described previously (Paul, S. and Connor, J. A., 2010, J Neurochem 114:1107-1118) using the equation developed earlier (Grynkiewicz et al., 1985, J Biol Chem 260:3440-3450). Maximum and minimum fluorescence ratios were determined from Fura2 loaded cells treated with ionomycin (5 μM) in calcium containing medium (2 mM) or in calcium free media with EGTA (0.5 mM).

[1] = rat cortical neurons, L-homocysteine 50 μM four hours, in presence of NVP-AAM077 (30 nM) or Ro 256981 (1 μM)

For `C[C@H](NC(c1cccc2[nH]c(=O)c(=O)[nH]c12)P(=O)(O)O)c1ccc(Br)cc1` (stereo partly drawn) [NVP-AAM077, ({[(1S)-1-(4-bromophenyl)ethyl]amino}-(2,3-dioxo-1,4-dihydroquinoxalin-5-yl)methyl)phosphonic acid], the “effect on homocysteine-induced ERK MAPK phosphorylation” value (ERK MAPK; [1]) was “blocks homocysteine-induced ERK MAPK phosphorylation”, the “effect on homocysteine-induced ERK MAPK phosphorylation” value (ERK MAPK; rat neurons, L-homocysteine 50 μM for 30 minutes or 60 minutes, with DL-AP5 200 μM or NVP-AAM077 30 nM) was “attenuates homocysteine-induced ERK MAPK phosphorylation” and the “effect on glutamate-induced transient increase in ERK MAPK phosphorylation” value (ERK MAPK; rat neurons, glutamate 50 μM five min, with DL-AP5 200 μM or NVP-AAM077 30 nM) was “fails to ameliorate”. For the same molecule, the “effect on homocysteine-induced increase in Fura2 fluorescence ratio and [Ca^2+]i” value ([Ca^2+]i) was “attenuates homocysteine-induced increase in Fura2 fluorescence ratio and [Ca^2+]i”.

In the case of `C[C@@H](CN1CCC(Cc2ccccc2)CC1)[C@@H](O)c1ccc(O)cc1` [Ro 25-6981], the “effect on homocysteine-induced ERK MAPK phosphorylation” value (ERK MAPK; [1]) is reported as “has no effect” and the “effect on homocysteine-induced increase in Fura2 fluorescence ratio and [Ca^2+]i” value ([Ca^2+]i) is reported as “fails to attenuate homocysteine-induced [Ca^2+]i increase”.

For `N[C@@H](CCS)C(=O)O` [L-homocysteine], the “ERK MAPK phosphorylation” value (ERK MAPK; rat cortical neurons, L-homocysteine 50 μM, four hours, alone) was “significant increase in ERK MAPK phosphorylation” and the “maximum increase in [Ca^2+]i vs control cells” value ([Ca^2+]i; rat neurons (soma), L-homocysteine 50 μM, by 60 minutes) was “approximately 7.2 folds”.
